This note sets out measurements from the supplement of paper PMC10307832.

Common to all, as to assay: relative viability (nuclei count vs DMSO), 5 days (fraction); higher = more cells survive
Compound in the experiment “Entinostat + Decitabine”: Nc1ccccc1NC(=O)c1ccc(CNC(=O)OCc2cccnc2)cc1 [Entinostat] + Nc1ncn([C@H]2C[C@H](O)[C@@H](CO)O2)c(=O)n1 [Decitabine] (partner 2 µM)
The method in brief:
(§1)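 Medians of duplicate plates are given as relative viability. That measure is the nuclei count in treated wells divided by the count in vehicle wells. Counts were taken on 4× images of lung cancer cell lines in 1536-well plates, 5 days after pin-tool dosing the day after seeding with one drug alone or a fixed anchor-drug dose plus five library-drug doses (not always all listed) in √10 steps.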

Compound in the experiment “SGI-1776 + Crizotinib”: CN1CCC(CNc2ccc3ncc(-c4cccc(OC(F)(F)F)c4)n3n2)CC1 [SGI-1776] + C[C@@H](Oc1cc(-c2cnn(C3CCNCC3)c2)cnc1N)c1c(Cl)ccc(F)c1Cl [Crizotinib] (partner 1 µM)
In a few lines:
as §1

Compound in the experiment “Entinostat + Bortezomib”: Nc1ccccc1NC(=O)c1ccc(CNC(=O)OCc2cccnc2)cc1 [Entinostat] + CC(C)C[C@H](NC(=O)[C@H](Cc1ccccc1)NC(=O)c1cnccn1)B(O)O [Bortezomib] (partner 0.002 µM)
The method in brief:
as §1

Compound in the experiment “SGI-1776 + Luminespib”: CN1CCC(CNc2ccc3ncc(-c4cccc(OC(F)(F)F)c4)n3n2)CC1 [SGI-1776] + CCNC(=O)c1noc(-c2cc(C(C)C)c(O)cc2O)c1-c1ccc(CN2CCOCC2)cc1 [Luminespib] (partner 0.01 µM)
The method in brief: as §1

For UMC-11, the relative viability was determined as 0.65 with Entinostat + Decitabine (first compound 0.02 µM); 0.681 with Entinostat + Decitabine (first compound 0.06325 µM); 0.506 in the experiment with Entinostat + Decitabine (first compound 0.2 µM); 0.386 in the experiment with Entinostat + Decitabine (first compound 0.6325 µM); 0.725 with Entinostat + Decitabine (first compound 2 µM); 0.614 with SGI-1776 + Crizotinib (first compound 0.08 µM). Further, the relative viability with SGI-1776 + Crizotinib (first compound 0.8 µM) turned out to be 0.498; in the experiment with SGI-1776 + Crizotinib (first compound 2.53 µM), 0.665; with SGI-1776 + Crizotinib (first compound 8 µM), 0.169; with Entinostat + Bortezomib (first compound 0.02 µM), 0.557; in the experiment with Entinostat + Bortezomib (first compound 0.06325 µM), 0.708; with Entinostat + Bortezomib (first compound 0.2 µM), 0.827. For the same cell line, the relative viability with Entinostat + Bortezomib (first compound 0.6325 µM) came to 0.217; with Entinostat + Bortezomib (first compound 2 µM) it was 0.111; with SGI-1776 + Luminespib (first compound 0.08 µM), 1.02; with SGI-1776 + Luminespib (first compound 0.8 µM), 0.971; with SGI-1776 + Luminespib (first compound 2.53 µM) it was 0.899; with SGI-1776 + Luminespib (first compound 8 µM) it was 0.862.
